Results as given in patent US8207226B1, “Use of FAAH antagonists for treating dry eye and ocular pain” (Alcon Research, Ltd., priority 2008, dated 2012).

Test system: cornea (capsaicin-induced blinking)
Assay type: in vivo, Sprague-Dawley rats
Settings: for reduction of blink rate elicited by capsaicin: topical ocular dosing in 10% cyclodextrin vehicle 5 min before capsaicin (5 μL of 0.0005%), seven week old Sprague-Dawley rats, blinks counted for one minute
From the text: A capsaicin blink test was used to determine the pharmacological effect of two fatty acid amides, oleamide and anandamide. The test measured the pain response of the cornea by the number of times the animal blinked after the application of capsaicin.
Lyophilized anandamide was resuspended in an aqueous 10% cyclodextrin solution that was buffered with an aliquot of 10× phosphate buffered saline (PBS) (Laine et. al., 2001, Pharmaceutical Research. 18:494-499). The test article, either cyclodextrin vehicle or fatty acid amide (FAA), was dosed to both eyes of seven week old Sprague-Dawley rats (n=8, per group) five minutes prior to the application of capsaicin. Blinks were counted after the application of anandamide. Animals were dosed with 5 μL of vehicle in OS eye. After a 5-second period, blinks were counted for one minute. Capsaicin (5 μL of 0.0005%) was dosed in the OD eye. Blinks were counted in the same manner as the OS eye.

| solubility in the 10% cyclodextrin vehicle (rat, in vivo) | Compound | reduction of blink rate elicited by capsaicin | blinking after test article alone (before capsaicin application) (rat, in vivo) |
| --- | --- | --- | --- |
| only partial solubility | CCCCCCCC/C=C\CCCCCCCC(N)=O [Oleamide, oleamide] | 20% |  |
|  | CCCCC/C=C\C/C=C\C/C=C\C/C=C\CCCC(=O)NCCO [anandamide] | 50% | rapid blinking for approximately one minute, followed by normal rates of blinking |
